Experimental data reported in patent US20250312339A1, “METHODS AND COMPOSITIONS COMPRISING A SHP2 INHIBITOR AND A PD-LI BINDING ANTAGONIST” (Genentech, Inc., priority 2022, published 2025).
“Also recorded” adds a separate entry of the source.

How the values were obtained:
Fc receptors = conditions: cited from earlier work
[1] = in vivo; cited from earlier work
EMT6 mammary carcinoma = test: Anti-tumor efficacy, EMT6 mammary carcinoma in BALB/c mice; assay type: in vivo
Protocol: Agents. Compound 1 was formulated in 50 mM Sodium Citrate buffer, pH3.0 at a concentration of […]. Anti-PD-L1 mAbs (Mu IgG2a anti-PD-L1, hereafter referred to as anti-PD-L1) and anti-gp120 isotype control (Mu IgG1 anti-gp120; hereafter referred to as Isotype Control) were formulated as a solution in buffer of 20 mM Histidine Acetate, 240 mM Sucrose, 0.02% Tween 20™, pH 5.5. An oral-dosed vehicle control was 50 mM Sodium Citrate buffer, pH3.0.
Cell Lines. The EMT6 mammary carcinoma cell line was cultured in vitro, harvested in log-phase growth, and resuspended in Hank's Balanced Salt Solution (HBSS) containing Matrigel™ (BD Biosciences; San Jose, CA) at a 1:1 ratio by volume for in vivo inoculation. Animals were each inoculated with 0.1×10^6 cells in the mammary gland (5, left) in a volume of […].
Mice tumor models. 10.6 weeks old Balb/c mice bearing tumors in the range of 141-196 mm^3 were evenly distributed into 4 study groups of 10 mice each. The mean tumor volume across all groups was 165 mm^3 at the start of dosing. The mean starting weight was 19.94 g. All concentrations were calculated based on a mean body weight of 20 g and adjusted for 10% body weight loss or gain. Mice in the various groups received the treatment regimens described in Table 1. Mice were dosed for a total of 28 days or until euthanized at first sign of morbidity or if body weight loss was >20% of their weight at the start of administration.
The study extended beyond 28 days and following the cessation of treatment to check for the durability of response and ended at day 102 wherein remaining mice were all euthanized.
Tumor and Body Weight Measurements. Tumor volumes were measured in two perpendicular dimensions (length and width) using Ultra Cal-IV calipers (model 54-10-111; Fred V. Fowler Co.; Newton, MA) and tumor volume was calculated according to the following formula: […]
Tumors that regressed by >50% relative to their starting volume during the study were categorized as partial responders (PRs) while tumors with a final tumor volume corresponding to full regression were categorized as complete responders (CRs). Animal body weights were measured using an Adventura Pro AV812 scale (Ohaus Corporation; Pine Brook, NJ) and percent change in body weight for each group was calculated and plotted (see FIG. 4). Percent weight change was calculated using the following formula: […]
Growth analysis and group comparisons. […] Analyses and comparisons of tumor growth were performed using a package of customized functions in R (Version 3.6.2); R Foundation for Statistical Computing; Vienna, Austria, which integrates software from open source packages (e.g., lme4, mgcv, gamm4, multcomp, settings, and plyr) and several packages from tidyverse (e.g., magrittr, dplyr, tidyr, and ggplot2) (Forrest et al.; Cancer Res 2020; 80(22):5089-97). All raw tumor volume measurements from 0 (minimum) to 8 mm^3 (maximum value) were judged to reflect complete tumor absence and were converted to 8 mm^3 prior to natural log transformation. A generalized additive mixed model (GAMM) was then applied to describe the changes in transformed tumor volumes over time using regression splines with automatically generated spline bases. This approach addresses both repeated measurements from the same study subjects and moderate dropouts before the end of the study. […]

EMT6 mammary tumors = test: Tumor immuno-profiling by flow cytometry after 7 days of treatment; assay type: in vivo, mice
Protocol: Tumor Immuno-profiling. Anti-tumor immunity was evaluated in EMT6 mammary tumors by flow cytometric immuno-profiling of tumor cells and tumor-infiltrating immune cells the tumor after 7-days of treatment with either vehicle and isotype control antibodies, single agent Compound 1 (60 mg/kg, PO, QD), anti-PD-L1 antibodies (10 mg/kg, IV, first dose, then 5 mg/kg, IP, twice per week), or the combination with of Compound 1 and anti-PD-L1.
The activation status of the TILs was assessed by assessing the expression of cytokines and effector molecules, including interferon gamma (IFNg), tumor necrosis factor alpha (TNFa) and granzyme B (GZMB) from tumor-derived T cells under restimulation conditions using PMA/ionomycin (FIG. 6A). […] There was also an increase of the frequency of CD8+ T cells expressing GZMB in tumors from mice treated with Compound 1 and anti-PD-L1 relative to the vehicle group (p=0.0137). (FIG. 6A). The polyfunctionality of tumor-infiltrating CD8^+ T cells (expressing IFNg and TNFa) was increased when mice were treated with Compound 1 alone or in combination with anti-PD-L1 antibodies relative to the vehicle group (p=0.0008 and p=0.0011, respectively). Markers of T cell activation and exhaustion were also assessed to determine if SHP2 inhibition by Compound 1 alone or in combination with anti-PD-L1 antibodies altered the phenotype of CD8+ T cells in the tumor.

recombinant human SHP2 = target: T1, recombinant human SHP2 (Homo sapiens, UniProt Q06124); test: Inhibition of recombinant human SHP2; assay type: biochemical; conditions: allosteric inhibitor
T1 sequence (Q06124 1-593): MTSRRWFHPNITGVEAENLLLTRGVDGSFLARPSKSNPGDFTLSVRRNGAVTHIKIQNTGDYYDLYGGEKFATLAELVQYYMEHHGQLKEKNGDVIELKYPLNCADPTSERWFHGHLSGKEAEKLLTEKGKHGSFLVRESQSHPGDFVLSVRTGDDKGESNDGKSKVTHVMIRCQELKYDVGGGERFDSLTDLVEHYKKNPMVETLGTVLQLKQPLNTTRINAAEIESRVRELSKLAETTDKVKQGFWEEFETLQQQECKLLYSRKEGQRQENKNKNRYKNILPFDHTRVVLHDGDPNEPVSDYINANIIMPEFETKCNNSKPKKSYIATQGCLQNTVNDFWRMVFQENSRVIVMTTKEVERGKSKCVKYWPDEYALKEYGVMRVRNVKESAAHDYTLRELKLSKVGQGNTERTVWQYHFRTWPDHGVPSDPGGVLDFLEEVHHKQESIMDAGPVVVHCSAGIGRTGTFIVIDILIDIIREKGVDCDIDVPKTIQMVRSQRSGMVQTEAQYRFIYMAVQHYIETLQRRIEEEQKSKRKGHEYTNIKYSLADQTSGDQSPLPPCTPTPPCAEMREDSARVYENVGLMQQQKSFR
Protocol: (§1) Compound 1 is a potent allosteric inhibitor of recombinant human SHP2, with inhibitory concentration of 50% (IC50) of 0.7 nM. It has been characterized in numerous nonclinical cancer models.

[2] = test system: SHP2 (ERKT/2 phosphorylation at Thr202/Tyr204) in EGFR-amplified KYSE-520 cells; test: SHP2 inhibition in cells by level of ERK phosphorylation; assay type: cell-based; conditions: Homo sapiens
Protocol: as §1

[3] = test system: panel of kinases, receptors, ion channels, and transporters; test: Selectivity panel
Protocol: as §1

[4] = Anti-proliferative effect in cancer cell lines, 2D and anchorage-independent 3D formats; assay type: cell-based; conditions: numerous cell lines, 2D or 3D assays; read-out: IC50, proliferation
From the text: The anti-proliferative effect of Compound 1 has been assessed in multiple cancer cell lines using 2D and anchorage-independent 3D formats.

[5] = test system: KRAS-mutant NSCLC (NCI-H358); test: Human tumor xenograft model, KRAS-mutant NSCLC; assay type: in vivo; conditions: oral administration, single agent
From the text: (§2) Compound 1 has also been tested for in vivo anti-tumor activity in multiple xenograft models.

[6] = test system: EGFR-amplified esophageal squamous cell carcinoma (KYSE-520); test: Human tumor xenograft model, EGFR-amplified esophageal squamous cell carcinoma; assay type: in vivo; conditions: oral administration, single agent
From the text: as §2

[7] = Nonclinical safety studies; assay type: in vivo
From the text: Risks associated with MAPK-Pathway Class Inhibitors. Administration of MAPK-pathway inhibitors has been associated with cardiomyopathy, retinopathy, Cardiomyopathy, CPK increase, thromboembolic events, Phototoxicity, and Reproductive Toxicity.

[8] = Events associated with administration of Compound 1; assay type: in vivo; conditions: reversible and monitorable events
From the text: Risks Associated with Compound 1.

## Atezolizumab: Fc-engineered, humanized, non-glycosylated IgG1 kappa immunoglobulin that binds PD-L1 (SEQ ID NO: 1 and 2)
Fc receptors
  Binding to Fc receptors: minimal binding to Fc receptors
[1]
  Tolerability: generally well tolerated

## N[C@@H]1c2ccccc2OC12CCN(c1cnc3c(N4CCCc5ncccc54)n[nH]c3n1)CC2 [Compound 1, (R)-1′-(3-(3,4-dihydro-1,5-naphthyridin-1(2H)-yl)-1H-pyrazolo[3,4-b]pyrazin-6-yl)-3H-spiro[benzofuran-2,4′-piperidin]-3-amine]
EMT6 mammary carcinoma; AUC-based, relative to vehicle controls, Compound 1 60 mg/kg PO QD, anti-PD-L1 10 mg/kg IV then 5 mg/kg IP twice weekly
  Legacy % TGI: 47%
EMT6 mammary carcinoma; EMT6 syngeneic tumor model, Compound 1 60 mg/kg QD
  Anti-tumor efficacy (in words): no efficacy
EMT6 mammary carcinoma; end of study day 102, after cessation of 28-day dosing, 10 mice per group
  EOS CR (complete responders at end of study): 0 (0.0%)
EMT6 mammary carcinoma; relative to vehicle controls, Compound 1 60 mg/kg PO QD, anti-PD-L1 10 mg/kg IV first dose then 5 mg/kg IP twice weekly
  Growth Contrast, LN (GR): −0.033 LN
EMT6 mammary carcinoma; tumors regressed by >50% relative to starting volume, 10 mice per group
  PR (partial responders): 0 (0.0%)
EMT6 mammary tumors; PMA/ionomycin restimulation, vs vehicle, p=0.0002 (Compound 1), p=0.0001 (combination)
  IFNg expression on tumor-derived CD8+ T cells: increase
EMT6 mammary tumors; PMA/ionomycin restimulation, vs vehicle, p=0.0016 (Compound 1), p=0.0035 (combination)
  TNFa expression on tumor-derived CD8+ T cells: increase
EMT6 mammary tumors; vs vehicle group, 7 days, p=0.0127 (Compound 1), p=0.0018 (combination)
  MFI of PD-L1 expression on tumor cells (CD45 negative): significant increase
EMT6 mammary tumors; vs vehicle group, 7 days, p=0.0354 (Compound 1), p=0.0044 (combination)
  MFI of MHC-I expression on tumor cells (CD45 negative): significant increase
EMT6 mammary tumors; vs vehicle group, p=0.0008 (Compound 1), p=0.0011 (combination)
  Polyfunctionality of tumor-infiltrating CD8+ T cells (co-expression of IFNg and TNFa): increase
EMT6 mammary tumors; vs vehicle group, p=0.0033 (Compound 1), p=0.0162 (combination)
  Frequency of M1 population of macrophages: increase
EMT6 mammary tumors; vs vehicle group, p=0.0036 (Compound 1), p=0.0007 (combination)
  M2 population of macrophages: decrease
EMT6 mammary tumors; vs vehicle group, p=0.0058 (Compound 1), p=0.008 (combination)
  Frequency of CD8 T cell population in tumor microenvironment: increase
EMT6 mammary tumors; vs vehicle group, p=0.0058 (Compound 1), p=0.0083 (combination)
  Frequency of MDSCs in tumor: reduction; also recorded: reduced
EMT6 mammary tumors; vs vehicle group, p=0.0067 (Compound 1), p=0.002 (combination)
  Frequency of CD4 T cell population in tumor microenvironment: increase
EMT6 mammary tumors; vs vehicle group, p=0.0072 (Compound 1), p=0.0098 (combination)
  Frequency of TAMs in tumor: reduction; also recorded: reduced
EMT6 mammary tumors; vs vehicle group, p=0.013 (Compound 1), p=0.024 (combination)
  Frequency of NK cells in tumor microenvironment: increase
Recombinant human SHP2
  IC50: 0.7 nM
[2]
  IC50: 1.3 nM
[3]
  Selectivity against panel: selectively inhibits SHP2
[4]
  IC50: < 1 nM
[5]
  Anti-tumor efficacy, NCI-H358 xenograft: significant anti-tumor efficacy
[6]
  Anti-tumor efficacy, KYSE-520 xenograft: significant anti-tumor efficacy
[7]
  Nonclinical toxicity findings: did not show evidence of cardiac, pulmonary, renal, thromboembolic, or ophthalmic toxicities
[8]
  Events associated with administration: Peripheral Edema, Myelosuppression (e.g., Thrombocytopenia, Anemia), Gastrointestinal Toxicities (e.g., Diarrhea, Nausea, and Vomiting), Elevation of Hepatic Transaminase, and Rash
